Laboratory results as given in paper PMC10449631 (Nature Chemical Biology, 2023).
Where “and” joins values, the source holds several entries; their conditions need not be identical. Equal entries are not always repeated. No end group written: not given here.

Target: T1, PaAP_T (P. aeruginosa aminopeptidase, C-terminal truncated) (Pseudomonas aeruginosa, UniProt Q02PA2)
T1 construct: PaAP (WT, residues 27–536); His6 (TEV cleavable) (N, cleaved yes); made in house; host or cells: E. coli SHuffle T7
T1 sequence (Q02PA2 37-516, looked up, natural form): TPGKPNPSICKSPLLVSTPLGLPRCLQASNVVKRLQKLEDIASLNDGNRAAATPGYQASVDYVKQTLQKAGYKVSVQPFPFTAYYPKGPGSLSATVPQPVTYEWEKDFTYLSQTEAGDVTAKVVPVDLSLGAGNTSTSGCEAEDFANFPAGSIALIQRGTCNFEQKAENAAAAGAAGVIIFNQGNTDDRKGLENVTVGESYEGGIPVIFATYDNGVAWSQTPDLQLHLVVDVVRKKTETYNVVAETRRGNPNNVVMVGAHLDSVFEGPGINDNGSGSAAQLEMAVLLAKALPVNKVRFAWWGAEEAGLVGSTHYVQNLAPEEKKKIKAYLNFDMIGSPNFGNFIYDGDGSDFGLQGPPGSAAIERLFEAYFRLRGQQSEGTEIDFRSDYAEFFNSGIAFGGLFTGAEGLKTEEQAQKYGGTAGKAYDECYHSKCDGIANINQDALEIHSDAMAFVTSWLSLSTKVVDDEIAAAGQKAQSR
Assay: Inhibition of PaAP_T in the Leu-pNA aminopeptidase assay (KI, IC50)
Format: biochemical
Conditions: for IC50 plot data (PaAP_T activity at given peptide concentration): (S) = 2 mM, PaAP 100 nM, listed as ERWGHDFIK (linear)
Method: Aminopeptidase activity was determined spectrophotometrically primarily using amino Leu-pNA. Other commercially available pNA substrates (isoleucine, methionine, alanine, valine, proline, arginine, lysine and phenylalanine) were also assayed. Leu-pNA was incubated with enzyme (100 nM) in assay buffer (50 mM Tris, pH 8.5, 200 mM NaCl) at 25 °C. A pNA release caused an absorbance increase at 405 nm, monitored using a BMG Labtech plate reader. […] Data were plotted in GraphPad Prism (version 9) and the Michalis Menten equation was used for fitting.
Inhibition assays were carried out with the following peptides: linear-ERWGHDFIK (PaAP C-terminal residues), cyclic-ERWGHDFIK, N-acetylated and C-amidated ERWGHDFIK. IC50 values were determined by varying peptide concentration at a fixed substrate concentration (fixed at KM, (S) = 2 mM, PaAP concentration was 100 nM). […] KI values were determined by fitting the data to equation (1) (Morrison’s equation):1 v=1−Et+I+KI−Et+I+KI^2−4EtIKI/2Et where v is the velocity, Et is the total enzyme concentration, I is the concentration of inhibitor and KI is the equilibrium dissociation constant for the inhibitor. IC50 values increased when measured at increasing S, consistent with competitive inhibition.

ERWGHDFIK [linear-ERWGHDFIK]
Ki: 9.98 µM
Slope (inhibitor 1 μM, [S] 0.125 mM): 21.4683 and 20.3052 and 17.979
Slope (inhibitor 1 μM, [S] 0.25 mM): 41.2291 and 37.1458 and 30.365
Slope (inhibitor 1 μM, [S] 0.5 mM): 67.9068 and 67.7954 and 67.0654
Slope (inhibitor 1 μM, [S] 1 mM): 121.633 and 131.285 and 109.532
Slope (inhibitor 1 μM, [S] 2 mM): 200.701 and 204.537 and 171.128
Slope (inhibitor 1 μM, [S] 4 mM): 291.524 and 268.014 and 241.411
Slope (inhibitor 5 μM, [S] 0.125 mM): 9.581 and 8.778 and 8.696
Slope (inhibitor 5 μM, [S] 0.25 mM): 32.4809 and 31.8746 and 26.7767
Slope (inhibitor 5 μM, [S] 0.5 mM): 59.2205 and 59.9629 and 55.5826
Slope (inhibitor 5 μM, [S] 1 mM): 96.3415 and 104.397 and 108.74
Slope (inhibitor 5 μM, [S] 2 mM): 181.646 and 174.716 and 170.509
Slope (inhibitor 5 μM, [S] 4 mM): 244.875 and 240.668 and 225.201
Slope (inhibitor 10 μM, [S] 0.125 mM): 20.5527 and 17.7562 and 12.5469
Slope (inhibitor 10 μM, [S] 0.25 mM): 41.2291 and 35.2155 and 27.5686
Slope (inhibitor 10 μM, [S] 0.5 mM): 78.3873 and 67.5108 and 53.8255
Slope (inhibitor 10 μM, [S] 1 mM): 125.469 and 113.021 and 101.823
Slope (inhibitor 10 μM, [S] 2 mM): 183.502 and 182.636 and 149.35
Slope (inhibitor 10 μM, [S] 4 mM): 242.153 and 233.244 and 209.115
Slope (inhibitor 25 μM, [S] 0.125 mM): 6.59 and 5.065
Slope (inhibitor 25 μM, [S] 0.25 mM): 13.4378 and 10.2466 and 12.344
Slope (inhibitor 25 μM, [S] 0.5 mM): 24.5618 and 19.0802 and 21.3817
Slope (inhibitor 25 μM, [S] 1 mM): 49.4576 and 37.8759 and 44.6938
Slope (inhibitor 25 μM, [S] 2 mM): 81.2827 and 58.2058 and 83.8441
Slope (inhibitor 25 μM, [S] 4 mM): 157.641 and 123.551 and 157.764
Slope (inhibitor 50 μM, [S] 0.25 mM): 11.9777 and 10.1576 and 8.79
Slope (inhibitor 50 μM, [S] 0.5 mM): 21.0971 and 19.6494 and 15.7888
Slope (inhibitor 50 μM, [S] 2 mM): 58.0945 and 62.2891 and 43.8276
Slope (inhibitor 50 μM, [S] 4 mM): 81.3941 and 82.5449 and 61.3735
Slope (inhibitor 100 μM, [S] 0.125 mM): 4.015 and 2.528
Slope (inhibitor 100 μM, [S] 0.25 mM): 7.23 and 6.8674 and 5.4469
Slope (inhibitor 100 μM, [S] 0.5 mM): 11.4246 and 12.4479 and 9.504
Slope (inhibitor 100 μM, [S] 1 mM): 22.1736 and 23.0274 and 17.6325
Slope (inhibitor 100 μM, [S] 2 mM): 38.6801 and 37.22 and 41.7859
Slope (inhibitor 100 μM, [S] 4 mM): 61.8313 and 63.972 and 50.5094
IC50 plot data (PaAP_T activity at given peptide concentration) (log(I) 0): 90.0485 and 96.6538 and 93.9669
IC50 plot data (PaAP_T activity at given peptide concentration) (log(I) 0.39794): 67.4338 and 85.0852 and 79.5995
IC50 plot data (PaAP_T activity at given peptide concentration) (log(I) 0.69897): 45.9385 and 56.7981 and 56.8354
IC50 plot data (PaAP_T activity at given peptide concentration) (log(I) 1): 21.9729 and 26.522 and 23.891
IC50 plot data (PaAP_T activity at given peptide concentration) (log(I) 1.39794): 12.1508 and 12.1918 and 12.9158
IC50 plot data (PaAP_T activity at given peptide concentration) (log(I) 1.69897): 10.3856 and 11.9269 and 11.4231
IC50 plot data (PaAP_T activity at given peptide concentration) (log(I) 2): 9.945 and 11.4156 and 11.076
IC50 plot data (PaAP_T activity at given peptide concentration) (log(I) -0.30103): 92.6981 and 112.924 and 94.3774
